Laboratory results as given in ChEMBL document CHEMBL1681761, “Synthesis, biological evaluation and molecular docking studies of stellatin derivatives as cyclooxygenase (COX-1, COX-2) inhibitors and anti-inflammatory agents” (Bioorg Med Chem Lett, 2011).

What was measured:
[1] = target: T1, Prostaglandin G/H synthase 1 (Homo sapiens, UniProt P23219); experiment: Inhibition of COX1
[2] = target: T2, Prostaglandin G/H synthase 2 (Homo sapiens, UniProt P35354)
T2 sequence (P35354 whole entry): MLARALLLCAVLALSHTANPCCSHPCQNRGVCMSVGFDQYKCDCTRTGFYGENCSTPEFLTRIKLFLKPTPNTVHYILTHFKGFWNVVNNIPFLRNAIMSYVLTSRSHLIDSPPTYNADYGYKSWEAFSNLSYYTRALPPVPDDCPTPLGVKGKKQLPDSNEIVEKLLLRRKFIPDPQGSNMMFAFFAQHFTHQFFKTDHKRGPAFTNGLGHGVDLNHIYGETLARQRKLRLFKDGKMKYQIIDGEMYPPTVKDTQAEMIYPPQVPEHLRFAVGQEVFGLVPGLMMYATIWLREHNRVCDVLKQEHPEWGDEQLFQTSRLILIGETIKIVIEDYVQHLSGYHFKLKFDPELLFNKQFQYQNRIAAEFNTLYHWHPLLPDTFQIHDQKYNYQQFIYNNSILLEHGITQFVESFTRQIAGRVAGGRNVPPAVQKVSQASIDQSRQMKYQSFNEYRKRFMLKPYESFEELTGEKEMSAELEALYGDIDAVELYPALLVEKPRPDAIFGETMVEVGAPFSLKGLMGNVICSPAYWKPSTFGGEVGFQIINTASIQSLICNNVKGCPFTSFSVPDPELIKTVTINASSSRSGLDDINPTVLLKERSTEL

[3] = system: Mus musculus; experiment: Antiinflammatory activity against TPA-induced mouse edema model assessed as ear thickness at 0.5 mg/ear (Rbv = 0.270 +/- 0.008 mm); type: functional
[4] = system: Mus musculus; experiment: Antiinflammatory activity against TPA-induced mouse edema model assessed as reduction in ear edema at 0.5 mg/ear; type: functional
[5] = target: T1, Prostaglandin G/H synthase 1; conditions: at 30 µM
Description: Inhibition of COX1 at 30 uM

[6] = target: T3, Prostaglandin G/H synthase 2 (Homo sapiens) (UniProt P35354); conditions: at 30 µM
T3 sequence (whole entry): T2 sequence (P35354 whole entry)
Description: Inhibition of COX2 at 30 uM

T1 sequence (P23219 whole entry): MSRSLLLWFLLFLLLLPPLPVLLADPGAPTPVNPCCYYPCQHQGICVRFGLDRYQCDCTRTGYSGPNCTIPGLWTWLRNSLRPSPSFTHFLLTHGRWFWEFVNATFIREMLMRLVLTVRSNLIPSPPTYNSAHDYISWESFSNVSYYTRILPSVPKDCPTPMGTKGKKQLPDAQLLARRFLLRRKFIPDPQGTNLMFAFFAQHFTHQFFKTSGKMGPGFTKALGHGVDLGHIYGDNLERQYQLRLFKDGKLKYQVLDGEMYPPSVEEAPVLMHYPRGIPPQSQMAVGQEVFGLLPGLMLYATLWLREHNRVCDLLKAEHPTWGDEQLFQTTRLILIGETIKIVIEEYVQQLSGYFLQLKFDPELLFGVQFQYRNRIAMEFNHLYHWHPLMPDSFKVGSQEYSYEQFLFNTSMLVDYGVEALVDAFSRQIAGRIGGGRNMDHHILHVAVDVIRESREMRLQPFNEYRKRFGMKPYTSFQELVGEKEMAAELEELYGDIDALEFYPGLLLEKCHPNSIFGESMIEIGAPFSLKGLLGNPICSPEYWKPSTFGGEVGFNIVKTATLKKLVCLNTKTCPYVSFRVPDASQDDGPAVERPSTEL

| SMILES | IC50 [1] [µM] | IC50 [2] [µM] | Activity [3] [mm] | inhibition (INH) [4] [%] | inhibition [5] [%] | inhibition [6] [%] |
| --- | --- | --- | --- | --- | --- | --- |
| C=CCOc1c(OC)cc2oc(C)cc(=O)c2c1O | 26 | 18 | 0.077 | 71.3 | 68.3 | 81.5 |
| COc1cc2oc(C)cc(=O)c2c(OCC=C(C)C)c1OC | 22.9 | 17.6 | 0.061 | 77.16 | 70.1 | 82.5 |
| COc1c(OC)c(O)c2c(=O)cc(C)oc2c1Cl | 27.2 | 43.4 | 0.105 | 61.11 | 66.8 | 50.3 |
| COc1cc2oc(C)cc(=O)c2c(O)c1OCC=C(C)C | 18.7 | 15.5 | 0.06 | 77.77 | 80.7 | 83.2 |
| CC(C)=CCOc1cc2oc(C)cc(=O)c2c(O)c1OCC=C(C)C | 17.2 | 10.3 | 0.04 | 85.18 | 82.3 | 91.7 |
| CCOc1c(OC)c(OC)cc2oc(C)cc(=O)c12 | – | – | – | – | 54.9 | 49.8 |
| C=CCOc1cc2oc(C)cc(=O)c2c(O)c1OCC=C | 21.6 | 13.5 | 0.053 | 80.24 | 74.1 | 89.5 |
| COc1cc2oc(C)cc(=O)c2c(OC)c1OC | – | – | – | – | 70.3 | 47.4 |
| COc1c(OC)c(O)c2c(=O)cc(C)oc2c1Br | 29.3 | 25.4 | 0.08 | 70.37 | 63.8 | 67 |
| COc1cc2oc(C)cc(=O)c2c(O)c1OC [STELLATIN] | 22.3 | 19.7 | 0.082 | 69.44 | 71.5 | 80.2 |
| COc1ccc2c(c1)c(CC(=O)O)c(C)n2C(=O)c1ccc(Cl)cc1 [INDOMETHACIN] | – | – | 0.05 | 81.48 | – | – |
| COc1cc(/C=C/C(=O)CC(=O)/C=C/c2ccc(O)c(OC)c2)ccc1O | – | – | – | – | 59 | – |
| COc1cc2oc(C)cc(=O)c2c(OCc2ccccc2)c1OC | – | – | – | – | 63.4 | 48.1 |
| C=CCOc1c(OC)c(OC)cc2oc(C)cc(=O)c12 | 38.3 | 21.2 | 0.09 | 66.66 | 56.2 | 73.9 |
| COc1cc(O)c2c(=O)cc(C)oc2c1 [EUGENIN] | 17.8 | 20.1 | 0.071 | 73.2 | 85.6 | 78.5 |
| COc1c(OC)c(O)c2c(=O)cc(C)oc2c1I | – | – | – | – | 57.2 | 37.7 |
| CCCOc1c(OC)c(OC)cc2oc(C)cc(=O)c12 | – | – | – | – | 40.2 | 48.4 |
| COc1cc2oc(C)cc(=O)c2c(OC(=O)c2ccccc2)c1OC | – | – | – | – | 45.8 | 68.1 |
| COc1cc2oc(C)cc(=O)c2c(O)c1O | 19.8 | 15.4 | 0.058 | 78.4 | 78.1 | 85 |
| COc1cc2oc(C)cc(=O)c2c(OC(C)=O)c1OC | – | – | – | – | 59 | 46.2 |
| CCCCOc1c(OC)c(OC)cc2oc(C)cc(=O)c12 | – | – | – | – | 28.4 | 52.5 |
| Cc1cc(=O)c2c(O)c(O)c(O)cc2o1 | 14.4 | 8.87 | 0.025 | 90.74 | 87.5 | 94.1 |
